Data published in PubChem BioAssay AID328 (DTP/NCI, 2004).
Where “and” joins values, the source holds several entries; their conditions need not be identical. Equal entries are not always repeated. Toxic doses and inconclusive results are not listed. Starred links: 1 amine or outer side, 2 acyl side, 3 side chain; linkers in the order of their positions; H or OH if unused. Positions of bridges follow the written chain, without caps; N, C: chain ends. Non-standard residues stand in square brackets, D forms with d. Residues, ends and D or L forms follow the SMILES beside them. Chains are numbered I, II in the order given. Actinocin(1to9) = Cc1c2oc3c(C)ccc(C(=O)[*:2])c3nc-2c(C(=O)[*:1])c(N)c1=O; NMeV = CN[CH](C(=O)O)C(C)C; Sar = CNCC(=O)O

Assays:
[1] = test system: BDF1 mice, P388 leukemia ip; assay: NCI In Vivo Anticancer Drug Screen. Data for tumor model P388 Leukemia (intraperitoneal) in B6D2F1 (BDF1) mice; details: endpoint: mean survival time, schedule: Q01DX010 (ip), vehicle: carboxymethylcellulose (CMC), higher = longer survival
In short: (§1)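 In tumour-bearing mice, survival after compound treatment is set against the vehicle group and given as a quotient.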

[2] = test system: BDF1 mice, P388 leukemia ip, median survival T/C; assay: as above; details: endpoint: median survival time, higher = longer survival
In short: as §1

Compound: CC(C)=CC(=O)C1C(=O)c2ccccc2C1=O
- T/C ([1]; dose: 25.0 mg/kg/injection): 93 % of control
- T/C ([1]; dose: 50.0 mg/kg/injection): 101 % of control
- T/C ([1]; dose: 100.0 mg/kg/injection): 101 % of control
- T/C ([1]; dose: 200.0 mg/kg/injection): 96 % of control

Compound: CC(C)(O)CCC(=O)C(C)(O)C1C(O)CC2(C)C3CC=C4C(CC(O)C(=O)C4(C)C)C3(C)C(=O)CC12C (stereo not drawn)
- T/C ([1]; dose: 1.0 mg/kg/injection): 97 % of control
- T/C ([1]; dose: 2.0 mg/kg/injection): 86 % of control
- T/C ([2]; dose: 1.0 mg/kg/injection, schedule: Q01DX010 (ip), vehicle: carboxymethylcellulose (CMC)): 121 % of control
- T/C ([2]; dose: 2.0 mg/kg/injection, schedule: Q01DX010 (ip), vehicle: carboxymethylcellulose (CMC)): 121 % of control
- T/C ([2]; dose: 4.0 mg/kg/injection, schedule: Q01DX010 (ip), vehicle: carboxymethylcellulose (CMC)): 121 % of control

Compound: CCC(C)C1NC(=O)C(NC(=O)c2c3nc4c(C(=O)NC5C(=O)NC(C(C)C)C(=O)N6CCCC6C(=O)N(C)CC(=O)N(C)C(C(C)C)C(=O)OC5C)ccc(C)c4oc-3c(C)c(=O)c2N)C(C)OC(=O)C(C(C)C)N(C)C(=O)CN(C)C(=O)C2CCCN2C1=O (stereo not drawn) (I: TIP[Sar][NMeV] / II: TVP[Sar][NMeV]; ester I:1-I:C, II:1-II:C; linker I:N-II:N via Actinocin(1to9); configuration not given here)
- T/C ([2]; dose: 0.05 mg/kg/injection, schedule: Q01DX010 (ip), vehicle: saline): 300 % of control
- T/C ([2]; dose: 0.1 mg/kg/injection, schedule: Q01DX010 (ip), vehicle: saline): 100 % of control
- T/C ([2]; dose: 0.2 mg/kg/injection, schedule: Q01DX001 (ip), vehicle: water): 175 % of control
- T/C ([2]; dose: 0.4 mg/kg/injection, schedule: Q01DX001 (ip), vehicle: water): 155 % of control
- T/C ([2]; dose: 0.8 mg/kg/injection, schedule: Q01DX001 (ip), vehicle: water): 175 % of control
- T/C ([2]; dose: 3.1 micrograms/kg/injection, schedule: Q01DX001 (ip), vehicle: saline): 118 % of control
- T/C ([2]; dose: 3.1 micrograms/kg/injection, schedule: Q01DX010 (ip), vehicle: saline): 180 % of control
- T/C ([2]; dose: 3.1 micrograms/kg/injection, schedule: Q04DX003 (ip), vehicle: saline): 118 % of control
- T/C ([2]; dose: 6.0 micrograms/kg/injection, schedule: Q01DX010 (ip), vehicle: saline): 180 % of control
- T/C ([2]; dose: 6.2 micrograms/kg/injection, schedule: Q01DX010 (ip), vehicle: saline): 190 % of control
- T/C ([2]; dose: 6.3 micrograms/kg/injection, schedule: Q01DX001 (ip), vehicle: saline): 109 % of control
- T/C ([2]; dose: 12.5 micrograms/kg/injection, schedule: Q01DX009 (ip), vehicle: water): 213 % of control
- T/C ([2]; dose: 12.5 micrograms/kg/injection, schedule: Q01DX010 (ip), vehicle: saline): 228 % of control and 220 % of control
- T/C ([2]; dose: 25.0 micrograms/kg/injection, schedule: Q01DX009 (ip), vehicle: water): 215 % of control
- T/C ([2]; dose: 25.0 micrograms/kg/injection, schedule: Q01DX010 (ip), vehicle: saline): 285 % of control and 220 % of control
- T/C ([2]; dose: 25.0 micrograms/kg/injection, schedule: Q04DX003 (ip), vehicle: saline): 154 % of control
- T/C ([2]; dose: 50.0 micrograms/kg/injection, schedule: Q01DX001 (ip), vehicle: saline): 150 % of control
- T/C ([2]; dose: 50.0 micrograms/kg/injection, schedule: Q01DX009 (ip), vehicle: water): 215 % of control
- T/C ([2]; dose: 50.0 micrograms/kg/injection, schedule: Q01DX010 (ip), vehicle: saline): 285 % of control and 300 % of control
- T/C ([2]; dose: 50.0 micrograms/kg/injection, schedule: Q04DX003 (ip), vehicle: saline): 190 % of control
- T/C ([2]; dose: 75.0 micrograms/kg/injection, schedule: Q04DX003 (ip), vehicle: water): 172 % of control
- T/C ([2]; dose: 100.0 micrograms/kg/injection, schedule: Q01DX001 (ip), vehicle: saline): 159 % of control
- T/C ([2]; dose: 100.0 micrograms/kg/injection, schedule: Q01DX009 (ip), vehicle: water): 243 % of control
- T/C ([2]; dose: 100.0 micrograms/kg/injection, schedule: Q01DX010 (ip), vehicle: saline): 110 % of control
- T/C ([2]; dose: 100.0 micrograms/kg/injection, schedule: Q04DX003 (ip), vehicle: saline): 186 % of control
- T/C ([2]; dose: 150.0 micrograms/kg/injection, schedule: Q04DX003 (ip), vehicle: water): 181 % of control
- T/C ([2]; dose: 200.0 micrograms/kg/injection, schedule: Q01DX001 (ip), vehicle: saline): 186 % of control
- T/C ([2]; dose: 200.0 micrograms/kg/injection, schedule: Q01DX010 (ip), vehicle: saline): 90 % of control
- T/C ([2]; dose: 200.0 micrograms/kg/injection, schedule: Q04DX003 (ip), vehicle: saline): 231 % of control
- T/C ([2]; dose: 300.0 micrograms/kg/injection, schedule: Q04DX003 (ip), vehicle: water): 241 % of control
- T/C ([2]; dose: 400.0 micrograms/kg/injection, schedule: Q01DX001 (ip), vehicle: saline): 218 % of control
- T/C ([2]; dose: 400.0 micrograms/kg/injection, schedule: Q04DX003 (ip), vehicle: saline): 263 % of control
- T/C ([2]; dose: 600.0 micrograms/kg/injection, schedule: Q04DX003 (ip), vehicle: water): 267 % of control

Compound: COc1cc(/C=N\NC(=O)CC#N)cc(OC)c1OC
- T/C ([2]; dose: 50.0 mg/kg/injection, schedule: Q01DX009 (ip), vehicle: saline with Tween-80): 90 % of control
- T/C ([2]; dose: 50.0 mg/kg/injection, schedule: Q04DX003 (ip), vehicle: saline with Tween-80): 95 % of control
- T/C ([2]; dose: 100.0 mg/kg/injection, schedule: Q01DX009 (ip), vehicle: saline with Tween-80): 104 % of control
- T/C ([2]; dose: 100.0 mg/kg/injection, schedule: Q04DX003 (ip), vehicle: saline with Tween-80): 95 % of control
- T/C ([2]; dose: 200.0 mg/kg/injection, schedule: Q01DX009 (ip), vehicle: saline with Tween-80): 100 % of control
- T/C ([2]; dose: 200.0 mg/kg/injection, schedule: Q04DX003 (ip), vehicle: saline with Tween-80): 95 % of control
